From patent publication US20220396604A1, “COMPOSITIONS COMPRISING MODIFIED SMARCB1 AND USES THEREOF” (Dana-Farber Cancer Institute, Inc., priority 2019, published 2022)

Test system: mononucleosomes
Assay: LANA peptide competition
Format: binding
Method: The LANA peptide competition was set up in a similar manner as the peptide pull-down experiments with the following exceptions: SMARCB1-CC (aa 351-385) biotin-labeled peptides at 10 μM in EB150 were bound to Streptavidin Dynabeads® (Pierce™ Streptavidin Magnetic Beads, Thermo Scientific) in parallel to […] of mononucleosomes incubated with LANA peptide (KE Biochem) at varying concentrations ranging from 0-30 μM overnight at 4° C. Beads were washed 3 times in EB150, and resuspended with the mononucleosome/LANA peptide solutions. The suspension was rotated for 3-5 hours at 4° C. The beads were washed 3-5 times in EB150, and eluted in Sample Buffer (2×LDS with 200 mM DTT) to load onto […] Tricine gels.

MAPPGMRLRSGRSTGAPLTRGSC [LANA Peptide]
antagonism of SMARCB1 CC domain-nucleosome interaction in competition experiments: only partially antagonized | changes in SMARCB1 C-terminal domain peptide-nucleosome binding in LANA peptide competition (1-20 uM concentration gradient, visualization of H3): minimal changes
